Consider one compound from publication PMC3615092, “Identification, Design and Bio-Evaluation of Novel Hsp90 Inhibitors by Ligand-Based Virtual Screening” (PLoS ONE, 2013).

By IC50 is commonly meant the concentration that inhibits the measured activity by half.

One assay has as its system MCF-7 cells. In words: Western-Blot analysis of Hsp90 client proteins and Hsp70. The class given is cell-based. The settings on record: MCF-7, 36 h. The protocol: MCF-7 cells were pretreated with various concentrations of the test compounds. After stimulation, cells were collected; lysed in lysis buffer [50 mM Tris-Cl, pH 7.6, 150 Mm NaCl, 1 mM EDTA, 1% (m/v) Nonidet P-40 (NP-40), 0.2 mM Phenylmethanesulfonyl fluoride (PMSF), 0.1 mM NaF and 1.0 mM dithiothreitol (DTT)], and the supernatant was obtained after centrifugation at 13,000× g for 10 min at 4°C. The concentration of protein in the supernatants was measured by the bicinchoninic acid (BCA) assay. Then equal amounts of protein (50 μg) were separated by 8% or 10% sodium dodecyl sulfate polyacrylamide gel electrophoresis (SDS-PAGE) and transferred onto the PVDF membranes (Millipore, Billerica, MA). The blots were incubated with specific antibodies against the indicated primary antibodies overnight at 4°C followed by IRDyeTM800-conjugated secondary antibody for 1 h at 37°C. Detection was performed by the Odyssey Infrared Imaging System (LI-COR; Lincoln, NE). All blots were stripped and incubated with polyclonal anti-β-actin antibody to ascertain equal loading of proteins.

Another assay has as its target T1, Hsp90 (Homo sapiens, UniProt P07900).
T1 construct: The region encoding full-length Hsp90 was subcloned into pET28a; inferred from the pET28a vector and Ni-NTA purification; made in house; host or cells: E. coli
The experiment in a line: ATP hydrolysis inhibition, ADP Hunter Plus (ADP fluorescence) assay. The format is biochemical. The settings on record: by ADP fluorescence assay. The protocol:
The first and last rows of the 96-well plate contained the appropriate concentration of DMSO were used as blank control. ATP was dissolved in the assay buffer to give a stock concentration of 2.5 mM and stored at room temperature. A 10 μL aliquot of ATP solution was added to each well to give a final assay concentration of 1 mM. Before the usage, Hsp90 protein was thawed on ice and suspended in chilled assay buffer to a stock concentration of 0.45 mg/mL, and the solution was kept on ice. […] The plates were shaken for approximately 2 min and incubated for 3 h at 37°C. The Discover RX ADP Hunter^TM Plus Assay kit (Discoverx, Fremont, CA) was used following the manufacturer's instructions. ATPase reactions were carried out after 3 h at 37°C temperature in presence of different concentrations of compounds. ADP generation was measured using Varioskan multimode microplate spectrophotometer (540 nm excitation and 620 nm emission). […] The background reaction rate was measured in a reaction lacking enzyme or substrate and subtracted from the experimental rates.

With `COc1ccccc1N1CCN(CC(O)COCCOc2ccc(Br)cc2)CC1` (stereo not drawn) [Compound S13], in the assay on MCF-7 cells, the Hsp70 expression result is reported as “up-regulates” and the “depletion of Hsp90-dependent client proteins (Her2, Src, Akt, ERK, c-Raf, Hif-1α)” value is “concentration-dependent”. For the same compound, the IC50 at Hsp90 is 2830 nM.
